According to ChEMBL document CHEMBL3727350, “Agents and methods for treating ischemic and other diseases” (2014):
The source made the active and inactive calls. The calls are words filed in the database; no cut-off is given here.

target: Transient receptor potential cation channel subfamily M member 7 (Mus musculus) (UniProt Q923J1); test: Inhibition of Tet-induced Flag-tagged mouse TRPM7 expressed in HEK293 cells assessed as inhibition of channel-mediated cell death in presence of Mg2+ incubated for 24 to 48 hrs by propidium iodide uptake assay; type: cell-based; parameters: concentration or dose not given beside the values; conditions: not given
Sequence (Q923J1 whole entry): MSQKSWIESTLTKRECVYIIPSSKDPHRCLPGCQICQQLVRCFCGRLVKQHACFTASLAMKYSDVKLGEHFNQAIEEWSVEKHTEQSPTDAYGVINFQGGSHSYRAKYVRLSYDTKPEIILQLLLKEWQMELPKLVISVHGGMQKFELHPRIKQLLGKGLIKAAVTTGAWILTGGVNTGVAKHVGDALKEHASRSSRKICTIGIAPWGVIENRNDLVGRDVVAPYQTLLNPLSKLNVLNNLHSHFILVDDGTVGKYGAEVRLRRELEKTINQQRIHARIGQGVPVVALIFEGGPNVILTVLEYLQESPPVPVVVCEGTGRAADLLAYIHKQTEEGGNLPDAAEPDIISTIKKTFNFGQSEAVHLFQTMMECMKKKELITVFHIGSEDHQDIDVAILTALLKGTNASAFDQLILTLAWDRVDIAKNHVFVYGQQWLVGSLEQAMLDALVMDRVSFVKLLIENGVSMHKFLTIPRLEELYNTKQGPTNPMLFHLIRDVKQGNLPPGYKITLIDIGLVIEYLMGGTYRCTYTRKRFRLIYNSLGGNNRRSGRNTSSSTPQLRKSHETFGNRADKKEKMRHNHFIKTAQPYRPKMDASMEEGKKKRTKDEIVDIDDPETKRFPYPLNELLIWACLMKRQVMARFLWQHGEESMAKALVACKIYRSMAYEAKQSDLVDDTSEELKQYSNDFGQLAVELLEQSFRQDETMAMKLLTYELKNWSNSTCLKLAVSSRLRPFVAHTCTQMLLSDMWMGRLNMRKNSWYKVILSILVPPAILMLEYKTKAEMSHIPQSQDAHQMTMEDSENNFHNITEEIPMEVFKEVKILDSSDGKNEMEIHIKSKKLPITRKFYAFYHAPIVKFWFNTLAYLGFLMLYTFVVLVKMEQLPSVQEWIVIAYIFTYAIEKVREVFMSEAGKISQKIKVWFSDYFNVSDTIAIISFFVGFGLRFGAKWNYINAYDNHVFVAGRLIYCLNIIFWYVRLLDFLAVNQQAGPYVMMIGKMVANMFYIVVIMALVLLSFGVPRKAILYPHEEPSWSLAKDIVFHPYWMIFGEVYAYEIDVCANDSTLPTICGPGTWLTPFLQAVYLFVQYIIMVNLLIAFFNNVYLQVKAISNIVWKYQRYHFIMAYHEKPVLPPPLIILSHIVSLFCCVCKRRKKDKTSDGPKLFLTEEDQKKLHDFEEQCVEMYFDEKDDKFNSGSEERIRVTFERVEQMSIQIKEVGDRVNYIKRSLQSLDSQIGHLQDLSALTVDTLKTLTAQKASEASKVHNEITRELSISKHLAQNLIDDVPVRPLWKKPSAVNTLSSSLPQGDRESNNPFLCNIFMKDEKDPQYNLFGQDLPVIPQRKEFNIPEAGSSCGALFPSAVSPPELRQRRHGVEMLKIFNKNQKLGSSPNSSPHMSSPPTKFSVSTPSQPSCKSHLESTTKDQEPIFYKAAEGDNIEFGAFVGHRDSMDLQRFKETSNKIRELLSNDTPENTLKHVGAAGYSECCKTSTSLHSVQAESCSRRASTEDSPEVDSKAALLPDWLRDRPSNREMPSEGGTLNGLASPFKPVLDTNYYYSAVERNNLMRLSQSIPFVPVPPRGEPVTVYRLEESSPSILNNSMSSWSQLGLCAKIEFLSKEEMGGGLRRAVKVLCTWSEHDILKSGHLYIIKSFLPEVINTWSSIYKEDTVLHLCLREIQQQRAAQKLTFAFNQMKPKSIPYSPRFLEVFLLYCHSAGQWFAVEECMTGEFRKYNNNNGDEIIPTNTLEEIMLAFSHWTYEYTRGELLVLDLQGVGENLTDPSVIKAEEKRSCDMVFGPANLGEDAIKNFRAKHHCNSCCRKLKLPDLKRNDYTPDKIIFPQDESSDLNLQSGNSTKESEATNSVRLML

With `COc1cccc2c1C(=O)c1c(O)c3c(c(O)c1C2=O)C[C@@](O)(C(C)=O)C[C@@H]3O[C@H]1C[C@H](N)[C@H](O)[C@H](C)O1` the inhibition was “Dose-dependent effect”.
For `COc1cc2c(c(OC)c1OC)-c1ccc(OC)c(=O)cc1[C@@H](NC(C)=O)CC2`, the inhibition was “Active”.
For `C[C@H]1O[C@@H](O[C@H]2[C@@H](O)C[C@H](O[C@H]3[C@@H](O)C[C@H](O[C@H]4CC[C@@]5(C)[C@H](CC[C@@H]6[C@@H]5C[C@@H](O)[C@]5(C)[C@@H](C7=CC(=O)OC7)CC[C@]65O)C4)O[C@@H]3C)O[C@@H]2C)C[C@H](O)[C@@H]1O`, the inhibition was “Dose-dependent effect”.
With `C=C(C)[C@@H]1CC[C@]2(C(=O)O)CC[C@]3(C)[C@H](CC[C@@H]4[C@@]5(C)CC[C@H](O)C(C)(C)[C@@H]5CC[C@]43C)[C@@H]12` the inhibition was “Dose-dependent effect”.
With `CC[C@H]1CN2CCc3cc(OC)c(OC)cc3[C@@H]2C[C@@H]1C[C@H]1NCCc2cc(OC)c(OC)cc21` the inhibition was “Active”.
`COc1ccc(C[C@H](N)C(=O)N[C@H]2[C@@H](O)[C@H](n3cnc4c(N(C)C)ncnc43)O[C@@H]2CO)cc1` was tested, and the inhibition was “Dose-dependent effect”.

same assay, conditions: concentration not given here

`O=C(Nc1ccc(N2CCC(C(F)(F)F)CC2)nc1)c1ccc(OC(F)(F)F)cc1` and `N/C(=N\OC(=O)c1ccc(OCC(F)(F)F)nc1)c1ccc(OC(F)(F)F)cc1` cannot be ordered by inhibition: < 30% for the first, < 30% for the second.

Compared with `CC(C)(C)c1ccc(N2C(=N)SCC2=O)cc1`, `CSc1nnc(CN2C(=O)CSc3ccc(C(F)(F)F)cc32)n1C` is lower in inhibition: 40% for the first, < 30% for the second.

First: O=c1ccsn1-c1ccc(F)c(Cl)c1
Second: Clc1ccc(-c2noc(-c3sccc3Cl)n2)cc1
The inhibition of the first is lower: < 30% for the first, 60% for the second.

First: CCCCCCCCCc1c(O)c2ccccc2[nH]c1=O
Second: CCCCCc1c(COC)c2ccc(O)cc2oc1=O
The inhibition of the first is higher: 60% for the first, 50% for the second.

First: OC1(C(F)(F)F)CC(c2cccs2)=NO1 (stereo unspecified)
Second: O=C(Nc1cccc(C(F)(F)F)c1)Nc1nnc(C2CC2)s1
The inhibition of the first is lower: 30% for the first, 50% for the second.

First: COC(=O)C(O)(c1ccc(NC(=O)Nc2ccc(Cl)cc2)cc1)C(F)(F)F (stereo unspecified)
Second: O=C(Nc1ccc(OC(F)(F)F)cc1)Nc1cc(-c2ccccc2)n[nH]1
The inhibition of the first is higher: 50% for the first, < 30% for the second.

`O=C(Oc1ccccc1)c1csc(C2COc3ccccc3O2)n1` (stereo unspecified) and `Cc1onc(-c2c(Cl)cccc2Cl)c1C(=O)Oc1ccccc1` cannot be ordered by inhibition: < 30% for the first, < 30% for the second.

`COc1cc(C(=O)Oc2c(Cl)cc(Cl)cc2/C=N\c2cccc(C(F)(F)F)c2)cc(OC)c1OC` and `COc1ccc(C(=O)Nc2c(-c3cccc(C(F)(F)F)c3)c(C(F)(F)F)nn2C)cc1OC` cannot be ordered by inhibition: < 30% for the first, < 30% for the second.

First: Cc1cc(O)nc2c1c(C)nn2C
Second: Cc1nc(N/C=N/O)c(Br)cc1Br
The inhibition of the first is lower: < 30% for the first, 30% for the second.

Compared with `N#Cc1ccc(NC(=O)Nc2ccc(OCc3ccccc3)cc2)cc1`, `COc1ccc(NC(=O)CSc2nnc(C)n2-c2ccc(OCc3ccccc3)cc2)cc1` is lower in inhibition: 80% for the first, 50% for the second.

`O=C(Oc1ccc(Oc2ccccc2)cc1)N1CCC(OC(=O)n2ccnc2)CC1` and `O=C1CC(c2ccccc2)CC(=O)N1c1ccc(Oc2ccc(Cl)cc2)cc1` cannot be ordered by inhibition: < 30% for the first, < 30% for the second.

Going from `CCOC(=O)c1c(-n2c(C)ccc2C)sc2c1CCCC2` to `CCOC(=O)c1sc2nc(C)c(/N=N/c3ccccc3)c(C)c2c1N`, the inhibition falls from 70% to < 30%.

Compared with `Cc1cc(S(=O)(=O)Cc2noc(-c3c(C)noc3C)n2)c(C)cc1Cl`, `Cc1noc(C)c1C(=O)OCc1ccc(-c2ccc(F)cc2F)o1` is higher in inhibition: 40% for the first, 50% for the second.

Going from `O=C(NC(=O)c1c(Cl)cccc1Cl)Nc1nc2cc(Cl)ccc2s1` to `O=C(NNC(=S)Nc1cc(Cl)ccc1Cl)c1ccccc1Cl`, the inhibition falls from 50% to < 30%.

Compared with `Cc1ccccc1NC(=O)NCc1cccs1`, `O=C(c1cccs1)N1CCCN(Cc2cccc3ccccc23)CC1` is higher in inhibition: 60% for the first, 80% for the second.

First: CCOC(=O)C(Nc1ccccc1)C(=O)OCC
Second: O=C(Nc1cccc([N+](=O)[O-])c1)c1ccccc1O
The inhibition of the first is lower: 30% for the first, 60% for the second.

Going from `COC(=O)c1scc(S(=O)(=O)C(C)C)c1N/N=C(\C#N)C(=O)c1ccccc1` to `C/C=N/N(c1ccccc1)c1cc(-c2ccc(OC)cc2)c(C#N)c(=O)[nH]1`, the inhibition rises from < 30% to 60%.

Compared with `COc1cccc(/C=C2/C=C(C3CCCS3)OC2=O)c1OC` (stereo unspecified), `COc1ccc2c(c1)CCCN2C(=O)c1sc2ccccc2c1Cl` is higher in inhibition: < 30% for the first, 60% for the second.

Compared with `FC(F)(F)COc1ccc(-c2nc(-c3ccc(Cl)cc3)cs2)cn1`, `CC(C)(C)c1ccc(-c2nc(CSc3ccc(Cl)cc3)no2)s1` is higher in inhibition: 50% for the first, 60% for the second.

`Cc1nnsc1C(=O)NCc1csc2ccc(Cl)cc12` and `Cc1c(S(=O)(=O)Nc2ccc(Cl)cc2)sc2ccc(Cl)cc12` cannot be ordered by inhibition: < 30% for the first, < 30% for the second.

First: Cc1csc(NC(=O)C(F)(F)F)c1C(N)=O
Second: CCOC(=O)C(=CNNS(=O)(=O)c1cc(C(F)(F)F)cc(C(F)(F)F)c1)C(=O)OCC
The inhibition of the first is higher: 50% for the first, 40% for the second.

First: COc1ccc(-c2[nH]ncc2CN2CCC(O)(c3ccc(Cl)cc3)CC2)cc1
Second: COc1ccccc1N1CCN(Cc2c[nH]c3ccccc23)CC1
The inhibition of the first is lower: < 30% for the first, 70% for the second.

`CC(C)NC(=O)n1ccc(-c2nn(-c3ccc(F)cc3)ccc2=O)n1` and `O=c1ccn(-c2ccc(F)cc2)nc1-c1ccnc(SCc2ccc(C(F)(F)F)cc2)n1` cannot be ordered by inhibition: < 30% for the first, < 30% for the second.

Going from `CCCCCc1ccc(S(=O)(=O)Nc2ccccc2C(=O)NCC2CC2)cc1` to `CC(=O)Nc1ccc(S(=O)(=O)Nc2ccccc2Oc2ccc(Cl)cc2Cl)cc1`, the inhibition rises from 60% to 80%.

`Cc1onc(-c2c(Cl)cccc2Cl)c1C(=O)Oc1ccc2c(C(F)(F)F)cc(=O)oc2c1` and `Cc1onc(-c2ccccc2Cl)c1C(=O)NNc1cccc(C(F)(F)F)n1` cannot be ordered by inhibition: < 30% for the first, < 30% for the second.

First: O=S(=O)(CS(=O)(=O)Oc1ccc(Cl)cc1Cl)Oc1ccc(Cl)cc1Cl
Second: CCOC(=O)c1cc(Cl)ccc1OS(=O)(=O)c1ccc(NC(C)=O)cc1
The inhibition of the first is lower: < 30% for the first, 50% for the second.

`O=[N+]([O-])c1cccc(-c2ccc(/C=N/NC(=S)NCc3ccco3)o2)c1` and `O=C1NC(=S)S/C1=C\c1cccc([N+](=O)[O-])c1` cannot be ordered by inhibition: < 30% for the first, < 30% for the second.

Compared with `COc1c(C(C)(C)C)cc(/N=C/c2ccccc2O)c(C)c1/N=C/c1ccccc1O`, `Cc1ccc(C(=O)Nc2ccc(Oc3ccc(C(C)(C)C)cc3)nc2)cc1` is higher in inhibition: 60% for the first, 70% for the second.

Compared with `CC1CN=C(N(CCc2ccccc2)C(=O)Nc2ccc(Cl)cc2)S1` (stereo unspecified), `O=C(CSc1nccc(-c2cc(-c3ccc(Cl)cc3Cl)no2)n1)Nc1ccc(Cl)cc1` is higher in inhibition: < 30% for the first, 30% for the second.

Compared with `NC(=O)C1CCN(CCS(=O)(=O)c2ccccc2)CC1`, `O=S(=O)(c1cc(Cl)sc1Cl)N1CCN(CCc2ccccc2)CC1` is lower in inhibition: 30% for the first, < 30% for the second.

Compared with `Oc1c(Cl)cc(Cl)cc1/C=N/c1ccc(Cl)cn1`, `N#CCc1nn(-c2ccccc2)c(/N=C/c2cc(Cl)cc(Cl)c2O)c1C#N` is higher in inhibition: 40% for the first, 60% for the second.

Going from `O=C(O)c1cc(C(F)(F)F)cc(C(F)(F)F)c1` to `Oc1cc(C(F)(F)F)nc2ccc(F)cc12`, the inhibition rises from < 30% to 80%.

Going from `COC(=O)C1=CNC(CC(CC=O)c2ccc(F)cc2)=CC1c1ccc(N(C)C)cc1Cl` (stereo unspecified) to `COc1ccccc1C1CCN(S(=O)(=O)c2ccc(C(C)C)cc2)CC1`, the inhibition rises from < 30% to 80%.

`Cc1ccc(OC/C(N)=N/OC(=O)c2cc(C)on2)cc1` and `Cc1ccc(Cn2nc(C(=O)O/N=C(\N)c3cccc(C(F)(F)F)c3)cc2C)cc1` cannot be ordered by inhibition: < 30% for the first, < 30% for the second.

First: COc1ccccc1C1CCN(C(=O)CSCc2cccc3ccccc23)CC1
Second: OC(CN1CCN(C(c2ccccc2)c2ccccc2)CC1)c1ccccc1 (stereo unspecified)
The inhibition of the first is higher: 80% for the first, 60% for the second.

`N#Cc1ccc2[nH]cc(CCN(Cc3ccccc3)Cc3ccccc3)c2c1` and `CCCCc1ccc(NC(=O)CSc2nc(-c3ccccc3)c(-c3ccccc3)o2)c(C)c1` cannot be ordered by inhibition: < 30% for the first, < 30% for the second.

First: COc1cc2c(cc1OCC(=O)Nc1ccc(C)cc1)C=CC(C)(C)O2
Second: Cc1cc(C)c(-n2nnnc2SCC(=O)Nc2ccccc2Cl)c(C)c1
The inhibition of the first is higher: 30% for the first, < 30% for the second.

Compared with `O=C(Oc1ccc([N+](=O)[O-])cc1)c1c(Cl)cccc1Cl`, `Cc1ccc([N+](=O)[O-])c(C(=O)NNC(=S)Nc2cccc(Cl)c2)c1` is higher in inhibition: 50% for the first, 60% for the second.

`COc1cccc(NC(=O)Nc2nnc(C3CC3)s2)c1` and `CN1c2ccsc2C(O)=C(C(=O)Nc2cccc(Cl)c2)S1(=O)=O` cannot be ordered by inhibition: < 30% for the first, < 30% for the second.

Compared with `O=C1c2ccccc2C(=O)N1Cc1cccc(I)c1`, `O=C1CC2Sc3ccccc3N=C2N1Cc1ccccn1` (stereo unspecified) is lower in inhibition: 40% for the first, < 30% for the second.

`Cc1cc(NS(=O)(=O)c2cccs2)[nH]n1` and `Cc1ccc(S(=O)(=O)Nc2ccccc2Oc2ccccc2)cc1` cannot be ordered by inhibition: < 30% for the first, < 30% for the second.

First: O=C(NNC(=S)Nc1cc(Cl)ccc1Cl)C(O)(c1ccccc1)c1ccccc1
Second: CC(=O)N1N=C(c2ccccc2O)CC1c1ccc(Cl)cc1Cl (stereo unspecified)
The inhibition of the first is higher: 50% for the first, < 30% for the second.

Going from `CSc1ncc2c(n1)CC(C)(C)C/C2=N/OC(=O)c1ccc(Cl)cc1` to `Cc1onc(-c2ccccc2)c1-c1cnn(S(=O)(=O)c2ccc(Cl)cc2)c1`, the inhibition rises from < 30% to 30%.

Compared with `N#Cc1ccc(/C=N/Nc2ncc(-c3ccc4c(c3)OCCCO4)s2)cc1`, `Cc1ccc2c(c1)CCCN2C(=S)Nc1cccc(Cl)c1` is lower in inhibition: 70% for the first, < 30% for the second.

Compared with `Cc1ccc(C(=O)/C=C/C(=O)O)c(C)c1F`, `Cc1ccc(Cn2nc(C(=O)O)cc2C)cc1` is lower in inhibition: 60% for the first, < 30% for the second.

First: CCc1cc2c(Sc3nnc(N)s3)ncnc2s1
Second: CC1(C)CC(=O)C=C(Sc2ccc(C#N)cc2[N+](=O)[O-])S1
The inhibition of the first is higher: 60% for the first, 50% for the second.

`CSc1sc(Br)c2c1C(=O)CCC2` and `Cc1ccc(Oc2ccc(C(F)(F)F)cc2[N+](=O)[O-])c2c1CCC2` cannot be ordered by inhibition: < 30% for the first, < 30% for the second.

Going from `CC(=O)OC[C@H]1OC(OC(C)(C)C)[C@H](OC(C)=O)[C@@H](OC(C)=O)[C@@H]1OC(C)=O` (stereo partly specified) to `C/C=C(\C)C(=O)Nc1nncs1`, the inhibition falls from 40% to < 30%.

Going from `CC(C)(C)c1cc2nc(C(F)(F)F)cc(N3CCN(S(=O)(=O)c4ccccc4)CC3)n2n1` to `Fc1ccc(N2CCN(Cc3c[nH]c(-c4ccccc4)n3)CC2)cc1`, the inhibition rises from < 30% to 70%.

`CC(C)c1ccc(NC(=O)c2c(-c3ccccc3)nnc3ccccc23)cc1` and `Cc1[nH]c2ccccc2c1CN1CCN(c2ccc(F)cc2)CC1` cannot be ordered by inhibition: < 30% for the first, < 30% for the second.
